# Results from the kinase profiling compilation of Christmann-Franck et al. (2016).
# Columns and labels:
# Assay in all cases: radiometric filter-binding kinase assay
# [1] = biological target: PAK6 (human) (UniProt Q9NQU5)
# [2] = biological target: MAP3K9 (human) (UniProt P80192)
# [3] = biological target: ERBB4 (human) (UniProt Q15303)
# [4] = biological target: AURKA (human) (UniProt O14965)
# [5] = biological target: PAK4 (human) (UniProt O96013)
# [6] = biological target: NTRK1 (human) (UniProt P04629)
# [7] = biological target: MAPKAPK2 (human) (UniProt P49137)
# [8] = biological target: MELK (human) (UniProt Q14680)
# [9] = biological target: INSR (human) (UniProt P06213)
# [10] = biological target: IRAK4 (human) (UniProt Q9NWZ3)
# [11] = biological target: MAPK9 (human) (UniProt P45984)
# [12] = biological target: DYRK2 (human) (UniProt Q92630)
# [13] = biological target: MAP3K11 (human) (UniProt Q16584)
# [14] = biological target: EEF2K (human) (UniProt O00418)
# [15] = biological target: PRKCA (human) (UniProt P17252)
# [16] = biological target: PKN2 (human) (UniProt Q16513)
# [17] = biological target: MARK4 (human) (UniProt Q96L34)
# [18] = biological target: MST4 (human) (UniProt Q9P289)
# [19] = biological target: MARK2 (human) (UniProt Q7KZI7)
# [20] = biological target: MAP2K2 (human) (UniProt P36507)
# [21] = biological target: MARK1 (human) (UniProt Q9P0L2)
# [22] = biological target: GSK3B (human) (UniProt P49841)
# [23] = biological target: MAP3K5 (human) (UniProt Q99683)
# [24] = biological target: NUAK1 (human) (UniProt O60285)
# [25] = biological target: HIPK3 (human) (UniProt Q9H422)
# [26] = test system: AKT1 (human), P31749 [S473D]
# [27] = biological target: MAPK12 (human) (UniProt P53778)
# [28] = biological target: PIM1 (human) (UniProt P11309)
# [29] = biological target: MAP3K7 TAB1 (human) (UniProt Q15750+O43318)
# [30] = biological target: MAP2K6 (human) (UniProt P52564)
# [31] = biological target: STK11 CAB39 STRADA (human) (UniProt Q9Y376+Q7RTN6+Q15831)
# [32] = biological target: EPHB3 (human) (UniProt P54753)
# [33] = biological target: EPHA2 (human) (UniProt P29317)
# [34] = biological target: PRKCZ (human) (UniProt Q05513)
# [35] = biological target: BRSK1 (human) (UniProt Q8TDC3)
# MARK1 (human), sequence (Q9P0L2 whole entry, looked up): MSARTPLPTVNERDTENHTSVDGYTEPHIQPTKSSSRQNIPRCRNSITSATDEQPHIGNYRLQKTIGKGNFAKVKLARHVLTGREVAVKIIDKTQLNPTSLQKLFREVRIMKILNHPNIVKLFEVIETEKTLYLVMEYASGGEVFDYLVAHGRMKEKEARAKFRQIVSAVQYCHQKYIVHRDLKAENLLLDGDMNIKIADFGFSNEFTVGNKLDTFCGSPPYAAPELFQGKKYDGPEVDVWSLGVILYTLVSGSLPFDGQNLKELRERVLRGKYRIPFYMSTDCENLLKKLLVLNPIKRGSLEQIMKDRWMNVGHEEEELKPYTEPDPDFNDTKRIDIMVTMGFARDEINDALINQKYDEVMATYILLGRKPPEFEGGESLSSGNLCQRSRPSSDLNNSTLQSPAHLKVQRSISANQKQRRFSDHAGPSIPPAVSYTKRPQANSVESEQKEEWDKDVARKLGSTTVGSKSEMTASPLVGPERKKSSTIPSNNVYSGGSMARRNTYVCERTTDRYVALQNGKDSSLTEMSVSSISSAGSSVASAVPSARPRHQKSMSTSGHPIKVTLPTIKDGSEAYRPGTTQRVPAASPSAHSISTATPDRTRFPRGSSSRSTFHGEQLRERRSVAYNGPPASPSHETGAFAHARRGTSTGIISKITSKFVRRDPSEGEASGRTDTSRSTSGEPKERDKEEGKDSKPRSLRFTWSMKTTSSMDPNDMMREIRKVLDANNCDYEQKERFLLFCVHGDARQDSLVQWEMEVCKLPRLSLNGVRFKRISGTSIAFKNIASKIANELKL
# MAP3K9 (human), sequence (P80192 whole entry, looked up): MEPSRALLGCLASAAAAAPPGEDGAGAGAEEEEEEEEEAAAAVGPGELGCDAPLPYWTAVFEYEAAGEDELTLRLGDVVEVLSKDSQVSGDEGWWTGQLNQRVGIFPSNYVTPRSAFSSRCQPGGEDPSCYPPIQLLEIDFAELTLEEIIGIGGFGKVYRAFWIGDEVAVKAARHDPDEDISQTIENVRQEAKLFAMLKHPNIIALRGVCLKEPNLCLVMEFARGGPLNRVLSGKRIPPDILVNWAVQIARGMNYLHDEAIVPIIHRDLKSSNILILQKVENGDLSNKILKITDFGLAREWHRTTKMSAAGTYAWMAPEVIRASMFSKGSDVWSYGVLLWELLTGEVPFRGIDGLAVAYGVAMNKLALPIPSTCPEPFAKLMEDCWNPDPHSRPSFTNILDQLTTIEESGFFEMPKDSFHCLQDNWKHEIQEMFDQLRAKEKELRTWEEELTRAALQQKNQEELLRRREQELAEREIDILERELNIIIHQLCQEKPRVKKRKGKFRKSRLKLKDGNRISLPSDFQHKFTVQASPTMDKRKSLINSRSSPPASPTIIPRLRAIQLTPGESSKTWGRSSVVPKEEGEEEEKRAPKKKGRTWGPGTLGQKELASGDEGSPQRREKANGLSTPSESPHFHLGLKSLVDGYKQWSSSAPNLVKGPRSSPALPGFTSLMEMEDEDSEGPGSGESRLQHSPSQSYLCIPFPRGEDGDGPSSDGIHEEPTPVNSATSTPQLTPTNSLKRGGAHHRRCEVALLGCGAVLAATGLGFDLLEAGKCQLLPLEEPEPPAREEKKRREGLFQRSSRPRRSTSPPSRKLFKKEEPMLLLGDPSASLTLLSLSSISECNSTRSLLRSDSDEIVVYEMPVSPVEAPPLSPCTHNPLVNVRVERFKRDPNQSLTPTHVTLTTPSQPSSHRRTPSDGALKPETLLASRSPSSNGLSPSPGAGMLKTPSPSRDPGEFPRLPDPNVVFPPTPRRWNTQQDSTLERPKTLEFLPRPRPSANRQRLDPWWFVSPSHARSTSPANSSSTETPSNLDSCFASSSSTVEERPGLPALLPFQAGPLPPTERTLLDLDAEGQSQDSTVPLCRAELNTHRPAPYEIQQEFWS
# ERBB4 (human), sequence (Q15303 whole entry, looked up): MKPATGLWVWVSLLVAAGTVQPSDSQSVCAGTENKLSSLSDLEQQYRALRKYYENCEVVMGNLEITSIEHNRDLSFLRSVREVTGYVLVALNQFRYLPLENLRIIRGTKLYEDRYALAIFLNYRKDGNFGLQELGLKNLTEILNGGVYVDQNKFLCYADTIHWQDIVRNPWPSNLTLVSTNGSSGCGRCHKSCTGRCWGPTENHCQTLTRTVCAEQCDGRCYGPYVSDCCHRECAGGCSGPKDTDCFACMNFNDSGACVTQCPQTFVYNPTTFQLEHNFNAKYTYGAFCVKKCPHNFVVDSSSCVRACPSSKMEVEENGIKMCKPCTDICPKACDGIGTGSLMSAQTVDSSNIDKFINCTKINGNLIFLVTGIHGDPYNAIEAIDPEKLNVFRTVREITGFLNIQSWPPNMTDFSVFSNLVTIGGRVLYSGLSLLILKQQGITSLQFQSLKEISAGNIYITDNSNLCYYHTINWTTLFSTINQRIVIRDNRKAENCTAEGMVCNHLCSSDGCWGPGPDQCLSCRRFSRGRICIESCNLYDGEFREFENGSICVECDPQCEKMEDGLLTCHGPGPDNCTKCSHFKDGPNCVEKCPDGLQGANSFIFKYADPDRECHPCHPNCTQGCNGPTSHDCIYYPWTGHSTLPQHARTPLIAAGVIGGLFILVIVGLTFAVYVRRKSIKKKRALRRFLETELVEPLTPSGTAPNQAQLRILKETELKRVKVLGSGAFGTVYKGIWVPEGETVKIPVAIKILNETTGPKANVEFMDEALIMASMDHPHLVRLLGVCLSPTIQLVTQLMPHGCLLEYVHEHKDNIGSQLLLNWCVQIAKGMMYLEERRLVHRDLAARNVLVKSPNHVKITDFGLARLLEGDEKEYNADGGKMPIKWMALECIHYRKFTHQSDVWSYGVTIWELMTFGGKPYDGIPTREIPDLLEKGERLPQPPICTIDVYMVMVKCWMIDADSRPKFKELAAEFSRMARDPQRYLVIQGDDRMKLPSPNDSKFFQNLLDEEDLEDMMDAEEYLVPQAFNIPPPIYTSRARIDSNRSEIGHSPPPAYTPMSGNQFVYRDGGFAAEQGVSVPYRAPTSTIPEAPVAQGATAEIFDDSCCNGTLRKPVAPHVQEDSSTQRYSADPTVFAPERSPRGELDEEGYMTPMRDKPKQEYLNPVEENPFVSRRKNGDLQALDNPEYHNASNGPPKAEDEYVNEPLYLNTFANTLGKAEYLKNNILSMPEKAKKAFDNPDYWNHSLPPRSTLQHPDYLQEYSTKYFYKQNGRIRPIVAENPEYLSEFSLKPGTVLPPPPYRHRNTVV
# MAP3K7 TAB1 (human), sequence (O43318 whole entry, looked up): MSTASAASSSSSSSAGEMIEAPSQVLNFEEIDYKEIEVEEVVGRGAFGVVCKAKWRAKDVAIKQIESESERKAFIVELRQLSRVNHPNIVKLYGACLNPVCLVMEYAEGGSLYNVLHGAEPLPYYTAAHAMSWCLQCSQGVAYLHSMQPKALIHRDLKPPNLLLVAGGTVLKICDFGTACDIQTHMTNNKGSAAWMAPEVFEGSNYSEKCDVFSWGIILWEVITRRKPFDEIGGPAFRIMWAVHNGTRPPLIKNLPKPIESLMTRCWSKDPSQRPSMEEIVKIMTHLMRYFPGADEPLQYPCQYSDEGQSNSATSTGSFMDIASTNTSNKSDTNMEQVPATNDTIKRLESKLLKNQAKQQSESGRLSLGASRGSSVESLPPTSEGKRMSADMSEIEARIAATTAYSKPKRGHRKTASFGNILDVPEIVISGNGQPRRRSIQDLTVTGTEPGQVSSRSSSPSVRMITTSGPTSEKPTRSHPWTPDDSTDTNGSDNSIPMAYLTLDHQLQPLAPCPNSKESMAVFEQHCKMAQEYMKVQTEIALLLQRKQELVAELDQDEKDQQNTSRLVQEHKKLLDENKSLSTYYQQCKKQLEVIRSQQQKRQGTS
# MAP3K7 TAB1 (human), sequence (Q15750 whole entry, looked up): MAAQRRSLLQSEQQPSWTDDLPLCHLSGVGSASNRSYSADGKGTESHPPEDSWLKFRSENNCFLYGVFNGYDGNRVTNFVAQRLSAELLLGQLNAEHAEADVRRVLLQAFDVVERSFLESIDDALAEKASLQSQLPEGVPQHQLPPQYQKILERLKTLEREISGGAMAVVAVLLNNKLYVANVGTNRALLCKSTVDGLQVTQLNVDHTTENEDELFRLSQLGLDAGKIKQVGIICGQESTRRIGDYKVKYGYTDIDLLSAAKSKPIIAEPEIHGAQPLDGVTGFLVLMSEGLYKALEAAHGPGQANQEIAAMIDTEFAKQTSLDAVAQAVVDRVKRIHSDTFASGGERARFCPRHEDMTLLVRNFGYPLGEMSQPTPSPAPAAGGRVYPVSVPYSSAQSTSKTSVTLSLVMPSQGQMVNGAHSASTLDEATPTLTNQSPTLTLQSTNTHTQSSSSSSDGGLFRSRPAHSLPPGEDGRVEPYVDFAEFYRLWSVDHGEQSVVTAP
# MARK2 (human), sequence (Q7KZI7 whole entry, looked up): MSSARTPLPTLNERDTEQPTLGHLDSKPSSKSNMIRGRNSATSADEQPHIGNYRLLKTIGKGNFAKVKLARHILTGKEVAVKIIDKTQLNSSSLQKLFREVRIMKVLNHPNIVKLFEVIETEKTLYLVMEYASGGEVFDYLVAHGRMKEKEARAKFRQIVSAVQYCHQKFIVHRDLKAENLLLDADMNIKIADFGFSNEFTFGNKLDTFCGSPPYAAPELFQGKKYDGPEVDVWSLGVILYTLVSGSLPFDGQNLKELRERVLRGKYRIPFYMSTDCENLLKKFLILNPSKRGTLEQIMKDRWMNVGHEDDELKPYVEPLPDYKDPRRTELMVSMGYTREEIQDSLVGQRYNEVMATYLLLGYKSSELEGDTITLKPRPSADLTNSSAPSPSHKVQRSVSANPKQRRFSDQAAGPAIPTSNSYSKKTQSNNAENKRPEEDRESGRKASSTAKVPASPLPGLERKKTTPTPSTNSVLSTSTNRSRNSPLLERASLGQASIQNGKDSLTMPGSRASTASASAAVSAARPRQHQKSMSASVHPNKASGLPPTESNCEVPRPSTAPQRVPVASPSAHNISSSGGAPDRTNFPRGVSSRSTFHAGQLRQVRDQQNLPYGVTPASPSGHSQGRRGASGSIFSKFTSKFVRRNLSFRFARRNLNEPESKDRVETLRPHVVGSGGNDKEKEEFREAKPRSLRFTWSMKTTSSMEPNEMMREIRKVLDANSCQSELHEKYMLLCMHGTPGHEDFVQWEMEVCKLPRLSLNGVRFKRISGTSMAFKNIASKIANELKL
smiles,measurement,setting,value
Cc1cc(NC(=O)c2cccc(NC(=O)/C=C/CN(C)C)c2)ccc1Nc1nccc(-c2cccnc2)n1,residual activity,[1]; compound 0.1 µM,110%
same,residual activity,[1]; compound 1.0 µM,96%
same,residual activity,[2]; compound 0.1 µM,98%
same,residual activity,[2]; compound 1.0 µM,88%
same,residual activity,[3]; compound 0.1 µM,102%
same,residual activity,[3]; compound 1.0 µM,98%
same,residual activity,[4]; compound 0.1 µM,97%
same,residual activity,[4]; compound 1.0 µM,91%
same,residual activity,[5]; compound 1.0 µM,78%
same,residual activity,[6]; compound 1.0 µM,92%
same,residual activity,[7]; compound 0.1 µM,102%
same,residual activity,[7]; compound 1.0 µM,100%
same,residual activity,[8]; compound 0.1 µM,91%
same,residual activity,[8]; compound 1.0 µM,63%
same,residual activity,[9]; compound 0.1 µM,102%
same,residual activity,[9]; compound 1.0 µM,80%
same,residual activity,[10]; compound 1.0 µM,86%
same,residual activity,[11]; compound 1.0 µM,17%
same,residual activity,[12]; compound 0.1 µM,73%
same,residual activity,[12]; compound 1.0 µM,72%
same,residual activity,[13]; compound 0.1 µM,95%
same,residual activity,[13]; compound 1.0 µM,94%
same,residual activity,[14]; compound 0.1 µM,98%
same,residual activity,[14]; compound 1.0 µM,95%
same,residual activity,[15]; compound 0.1 µM,93%
same,residual activity,[15]; compound 1.0 µM,90%
same,residual activity,[16]; compound 0.1 µM,112%
same,residual activity,[16]; compound 1.0 µM,95%
same,residual activity,[17]; compound 0.1 µM,101%
same,residual activity,[17]; compound 1.0 µM,84%
same,residual activity,[18]; compound 0.1 µM,96%
same,residual activity,[18]; compound 1.0 µM,79%
same,residual activity,[19]; compound 0.1 µM,99%
same,residual activity,[19]; compound 1.0 µM,85%
same,residual activity,[20]; compound 0.1 µM,98%
same,residual activity,[20]; compound 1.0 µM,92%
same,residual activity,[21]; compound 0.1 µM,114%
same,residual activity,[22]; compound 0.1 µM,114%
same,residual activity,[22]; compound 1.0 µM,90%
same,residual activity,[23]; compound 0.1 µM,100%
same,residual activity,[23]; compound 1.0 µM,91%
same,residual activity,[24]; compound 0.1 µM,79%
same,residual activity,[24]; compound 1.0 µM,49%
same,residual activity,[25]; compound 0.1 µM,97%
same,residual activity,[25]; compound 1.0 µM,90%
same,residual activity,[26]; compound 0.1 µM,102%
same,residual activity,[26]; compound 1.0 µM,98%
same,residual activity,[27]; compound 0.1 µM,99%
same,residual activity,[27]; compound 1.0 µM,95%
same,residual activity,[28]; compound 0.1 µM,104%
same,residual activity,[28]; compound 1.0 µM,89%
same,residual activity,[29]; compound 0.1 µM,90%
same,residual activity,[29]; compound 1.0 µM,66%
same,residual activity,[30]; compound 0.1 µM,100%
same,residual activity,[30]; compound 1.0 µM,95%
same,residual activity,[31]; compound 0.1 µM,106%
same,residual activity,[31]; compound 1.0 µM,95%
same,residual activity,[32]; compound 1.0 µM,105%
same,residual activity,[33]; compound 0.1 µM,118%
same,residual activity,[33]; compound 1.0 µM,111%
same,residual activity,[34]; compound 0.1 µM,116%
same,residual activity,[34]; compound 1.0 µM,89%
same,residual activity,[35]; compound 0.1 µM,99%
same,residual activity,[35]; compound 1.0 µM,87%
NC(=O)c1c(NC(=O)C2CC2)sc2c1CCCC2,residual activity,[1]; compound 1.0 µM,83%
same,residual activity,[1]; compound 10.0 µM,80%
same,residual activity,[2]; compound 1.0 µM,72%
same,residual activity,[2]; compound 10.0 µM,32%
same,residual activity,[3]; compound 1.0 µM,106%
same,residual activity,[3]; compound 10.0 µM,98%
same,residual activity,[4]; compound 1.0 µM,87%
same,residual activity,[4]; compound 10.0 µM,22%
same,residual activity,[5]; compound 1.0 µM,93%
same,residual activity,[5]; compound 10.0 µM,46%
same,residual activity,[6]; compound 1.0 µM,90%
same,residual activity,[6]; compound 10.0 µM,30%
same,residual activity,[7]; compound 1.0 µM,98%
same,residual activity,[8]; compound 1.0 µM,71%
same,residual activity,[8]; compound 10.0 µM,44%
same,residual activity,[9]; compound 1.0 µM,101%
same,residual activity,[9]; compound 10.0 µM,97%
same,residual activity,[10]; compound 1.0 µM,68%
same,residual activity,[10]; compound 10.0 µM,28%
same,residual activity,[11]; compound 1.0 µM,106%
same,residual activity,[11]; compound 10.0 µM,96%
same,residual activity,[12]; compound 1.0 µM,109%
same,residual activity,[12]; compound 10.0 µM,86%
same,residual activity,[13]; compound 1.0 µM,89%
same,residual activity,[13]; compound 10.0 µM,37%
same,residual activity,[14]; compound 1.0 µM,97%
same,residual activity,[14]; compound 10.0 µM,90%
same,residual activity,[15]; compound 1.0 µM,93%
same,residual activity,[15]; compound 10.0 µM,86%
same,residual activity,[16]; compound 1.0 µM,106%
same,residual activity,[16]; compound 10.0 µM,97%
same,residual activity,[17]; compound 1.0 µM,105%
same,residual activity,[17]; compound 10.0 µM,69%
same,residual activity,[18]; compound 1.0 µM,100%
same,residual activity,[18]; compound 10.0 µM,57%
same,residual activity,[19]; compound 1.0 µM,97%
same,residual activity,[20]; compound 1.0 µM,93%
same,residual activity,[20]; compound 10.0 µM,74%
same,residual activity,[21]; compound 1.0 µM,93%
same,residual activity,[21]; compound 10.0 µM,67%
same,residual activity,[22]; compound 1.0 µM,90%
same,residual activity,[22]; compound 10.0 µM,42%
same,residual activity,[23]; compound 1.0 µM,106%
same,residual activity,[23]; compound 10.0 µM,96%
same,residual activity,[24]; compound 1.0 µM,75%
same,residual activity,[24]; compound 10.0 µM,30%
same,residual activity,[25]; compound 1.0 µM,89%
same,residual activity,[25]; compound 10.0 µM,102%
same,residual activity,[26]; compound 1.0 µM,115%
same,residual activity,[26]; compound 10.0 µM,102%
same,residual activity,[27]; compound 1.0 µM,93%
same,residual activity,[27]; compound 10.0 µM,94%
same,residual activity,[28]; compound 1.0 µM,96%
same,residual activity,[28]; compound 10.0 µM,87%
same,residual activity,[29]; compound 1.0 µM,92%
same,residual activity,[29]; compound 10.0 µM,53%
same,residual activity,[30]; compound 1.0 µM,109%
same,residual activity,[30]; compound 10.0 µM,99%
same,residual activity,[31]; compound 1.0 µM,91%
same,residual activity,[31]; compound 10.0 µM,81%
same,residual activity,[32]; compound 1.0 µM,115%
same,residual activity,[32]; compound 10.0 µM,109%
same,residual activity,[33]; compound 1.0 µM,87%
same,residual activity,[33]; compound 10.0 µM,52%
same,residual activity,[34]; compound 1.0 µM,104%
same,residual activity,[34]; compound 10.0 µM,104%
same,residual activity,[35]; compound 1.0 µM,97%
same,residual activity,[35]; compound 10.0 µM,90%
